The source of these data is patent US20250171461A1, “STIMULATOR OF INTERFERON GENES (STING) MODULATORS, AND COMPOSITIONS AND METHODS THEREOF” (Geode Therapeutics Inc., priority 2022, published 2025).

In the test the target is T1, human HAQ STING isoform (hSTING HAQ) (Homo sapiens, UniProt Q86WV6, G230A/H232R/R293Q/R71H).
T1 construct: THP1 cells express the naturally occurring human HAQ STING isoform (hSTING HAQ); host or cells: THP1
T1 sequence (Q86WV6 whole entry R71H/G230A/H232R/R293Q, canonical isoform): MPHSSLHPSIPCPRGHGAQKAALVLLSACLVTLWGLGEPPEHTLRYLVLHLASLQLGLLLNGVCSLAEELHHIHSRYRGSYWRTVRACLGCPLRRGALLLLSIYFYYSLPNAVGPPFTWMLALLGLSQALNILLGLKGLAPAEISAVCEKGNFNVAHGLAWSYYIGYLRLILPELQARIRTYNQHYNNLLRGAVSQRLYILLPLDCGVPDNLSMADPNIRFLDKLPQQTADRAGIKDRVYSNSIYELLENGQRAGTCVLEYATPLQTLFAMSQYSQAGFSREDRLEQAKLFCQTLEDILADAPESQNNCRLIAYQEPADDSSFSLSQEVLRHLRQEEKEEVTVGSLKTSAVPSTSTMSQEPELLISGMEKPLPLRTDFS
The test can be described thus: IFN-β mRNA level in THP1 cells (qPCR, STING agonist cellular activity). The class given is cell-based. The note with it: compound at 3.6 μM, 2 hrs, IFNβ expression normalized against GAPDH by the 2^-ΔΔCT method, DMSO = 1.0. As to the method:
Cellular activity of STING agonists was determined by mRNA levels of IFN-β in THP1 (Otwo Biotech HTX1621) cell line. THP1 cells express the naturally occurring human HAQ STING isoform (hSTING HAQ), which responses to the activation of STING agonists.
THP1 cells were seeded into Falcon 12-well cell Culture Plate (Corning #353043) at 9×10^5 cells per well, in 1 ml complete culture medium (RPMI-1640, GIBCO #C1187500BT) containing 10% heat inactivated FBS (GIBCO #10099141C), 1% Pen-Strep (HyClone SV30010) and incubated at 37° ΔC, 5% CO2 overnight. On day 2, compound (final concentration at 3.6 μM) or DMSO (0.1%, Sigma Aldrich #8418) was added to THP1 cells and further incubated for 2 hrs min at 37° ΔC, 5% CO2. Cells were then collected for RNA extraction.
Total RNA was extracted with TRIzol reagent (Invitrogen #15596026) and […] was used to synthesize first-strand cDNA with Maxima First Strand cDNA Synthesis Kit (TAKARA #RR036A). Quantitative PCR was performed with Maxima SYBR Green qPCR Master Mix (ABI #4367659, USA). The primer sequences used were as follows: GAPDH (5′-[…]-3′, 5′-[…]-3′). INFP3 (5′-[…]-3′,5′-[…]-3′) Real-time PCR was performed on QuantStudio™ 5 Real-Time PCR System (Thermo Fisher). Relative expression levels of IFNβ gene were normalized against the level of GAPDH expression by the 2^−ΔΔCT method. Each PCR reaction was performed in triplicates.
Background: Real-time PCR tracks product formation cycle by cycle.
Take `COc1cc(CN(Cc2cn3c4c(c(F)c(F)cc4c2=O)OCC3C)[C@H]2CCCN(c3cccnc3)C2)ccn1` (stereo partly drawn) [Compound 22, 9,10-difluoro-6-((((2-methoxypyridin-4-yl)methyl)((S)-1-(pyridin-3-yl)piperidin-3-yl)amino)methyl)-3-methyl-2H-[1,4]oxazino[2,3,4-ij]quinolin-7(3H)-one]: the “Relative mRNA INFβ/GAPDH THP 1” value is on record as 6463.9.
Then `Cc1cc(CN(Cc2cn3c4c(c(F)c(F)cc4c2=O)OCC3)[C@H]2CCCN(c3ccc(N)nc3)C2)ccn1` [Compound 71, (S)-6-(((1-(6-aminopyridin-3-yl)piperidin-3-yl)((2-methylpyridin-4-yl)methyl)amino)methyl)-9,10-difluoro-2,3-dihydro-7H-[1,4]oxazino[2,3,4-ij]quinolin-7-one], with 6763.7; and `COc1cc(CN(Cc2cn3c4c(c(N5CCCCC5=O)c(F)cc4c2=O)OCC3C)[C@H]2CCCN(c3ccc(N)nc3)C2)ccn1` (stereo partly drawn) [Compound 61, 6-((((S)-1-(6-aminopyridin-3-yl)piperidin-3-yl)((2-methoxypyridin-4-yl)methyl)amino)methyl)-9-fluoro-3-methyl-10-(2-oxopiperidin-1-yl)-2H-[1,4]oxazino[2,3,4-ij]quinolin-7(3H)-one], with 0.7; and `CCOc1cc(CN(Cc2cn3c4c(c(F)c(F)cc4c2=O)OCC3)[C@H]2CCCN(c3cnccn3)C2)ccn1` [Compound 90, (S)-6-((((2-ethoxypyridin-4-yl)methyl)(1-(pyrazin-2-yl)piperidin-3-yl)amino)methyl)-9,10-difluoro-2,3-dihydro-7H-[1,4]oxazino[2,3,4-ij]quinolin-7-one], with 1.7.
Take `COc1cc(CN(Cc2cn3c4c(c(F)c(F)cc4c2=O)OCC3C)[C@H]2CCCN(c3ccc(N4CCCC4)nc3)C2)ccn1` (stereo partly drawn) [Compound 17, 9,10-difluoro-6-((((2-methoxypyridin-4-yl)methyl)((S)-1-(6-(pyrrolidin-1-yl)pyridin-3-yl)piperidin-3-yl)amino)methyl)-3-methyl-2H-[1,4]oxazino[2,3,4-ij]quinolin-7(3H)-one]: the “Relative mRNA INFβ/GAPDH THP 1” value is on record as 6.7.
With `Cc1cncc(CN(Cc2cn3c4c(c(N5CCN(C)CC5)c(F)cc4c2=O)OCC3)[C@@H]2CCCN(c3cnccn3)C2)c1` [Compound 95, (R)-9-fluoro-10-(4-methylpiperazin-1-yl)-6-((((5-methylpyridin-3-yl)methyl)(1-(pyrazin-2-yl)piperidin-3-yl)amino)methyl)-2,3-dihydro-7H-[1,4]oxazino[2,3,4-ij]quinolin-7-one], the “Relative mRNA INFβ/GAPDH THP 1” value came to 1.2.
Then `COc1cc(CN(Cc2cn3c4c(c(F)c(F)cc4c2=O)OCC3C)[C@H]2CCCN(c3cnc4[nH]ncc4c3)C2)ccn1` (stereo partly drawn) [Compound 54, 6-((((S)-1-(1H-pyrazolo[3,4-b]pyridin-5-yl)piperidin-3-yl)((2-methoxypyridin-4-yl)methyl)amino)methyl)-9,10-difluoro-3-methyl-2H-[1,4]oxazino[2,3,4-ij]quinolin-7(3H)-one], with 3.9; and `COc1cc(CN(Cc2cn3c4c(c(OC)c(F)cc4c2=O)OCC3C)[C@H]2CCCN(c3ccc(N)nc3)C2)ccn1` (stereo partly drawn) [Compound 103, 6-((((S)-1-(6-aminopyridin-3-yl)piperidin-3-yl)((2-methoxypyridin-4-yl)methyl)amino)methyl)-9-fluoro-10-methoxy-3-methyl-2,3-dihydro-7H-[1,4]oxazino[2,3,4-ij]quinolin-7-one], with 356.0; and `Nc1ccc(N2CCC[C@H](N(Cc3ccncc3)Cc3cn4c5c(c(F)c(F)cc5c3=O)OCC4)C2)cn1` [Compound 70, (S)-6-(((1-(6-aminopyridin-3-yl)piperidin-3-yl)(pyridin-4-ylmethyl)amino)methyl)-9,10-difluoro-2,3-dihydro-7H-[1,4]oxazino[2,3,4-ij]quinolin-7-one], with 6236.9.
With `COc1cc(CN(Cc2cn3c4c(c(N5CC6(CCN(C)CC6)C5)c(F)cc4c2=O)OCC3C)[C@H]2CCCN(c3ccc(N)nc3)C2)ccn1` (stereo partly drawn) [Compound 45, 6-((((S)-1-(6-aminopyridin-3-yl)piperidin-3-yl)((2-methoxypyridin-4-yl)methyl)amino)methyl)-9-fluoro-3-methyl-10-(7-methyl-2,7-diazaspiro[3.5]nonan-2-yl)-2H-[1,4]oxazino[2,3,4-ij]quinolin-7(3H)-one] the figure was 595.1; with `CNC(=O)c1cc(CN(Cc2cn3c4c(c(F)c(F)cc4c2=O)OCC3)[C@H]2CCCN(c3cnccn3)C2)ccn1` [Compound 91, (S)-4-((((9,10-difluoro-7-oxo-2,3-dihydro-7H-[1,4]oxazino[2,3,4-ij]quinolin-6-yl)methyl)(1-(pyrazin-2-yl)piperidin-3-yl)amino)methyl)-N-methylpicolinamide], 1.0.
With `CCC1COc2c(F)c(F)cc3c(=O)c(CN(Cc4ccnc(OC)c4)[C@H]4CCCN(c5ccc(N)nc5)C4)cn1c23` (stereo partly drawn) [Compound 100, 6-((((S)-1-(6-aminopyridin-3-yl)piperidin-3-yl)((2-methoxypyridin-4-yl)methyl)amino)methyl)-3-ethyl-9,10-difluoro-2,3-dihydro-7H-[1,4]oxazino[2,3,4-ij]quinolin-7-one] the figure was 581.3.
As for `COc1cc(CN(Cc2cn3c4c(c(F)c(F)cc4c2=O)OCC3C)[C@H]2CCCN(c3ccc(N4CCCC4=O)nc3)C2)ccn1` (stereo partly drawn) [Compound 18, 9,10-difluoro-6-((((2-methoxypyridin-4-yl)methyl)((S)-1-(6-(2-oxopyrrolidin-1-yl)pyridin-3-yl)piperidin-3-yl)amino)methyl)-3-methyl-2H-[1,4]oxazino[2,3,4-ij]quinolin-7(3H)-one], the “Relative mRNA INFβ/GAPDH THP 1” value turned out to be 4.8.
With `COc1cc(CN(Cc2cn3c4c(c(N5C[C@@H](C)N[C@@H](C)C5)c(F)cc4c2=O)OCC3C)[C@H]2CCCN(c3ccc(N)nc3)C2)ccn1` (stereo partly drawn) [Compound 35, 6-((((S)-1-(6-aminopyridin-3-yl)piperidin-3-yl)((2-methoxypyridin-4-yl)methyl)amino)methyl)-10-((3S,5R)-3,5-dimethylpiperazin-1-yl)-9-fluoro-3-methyl-2H-[1,4]oxazino[2,3,4-ij]quinolin-7(3H)-one] the figure was 3791.8.
Then `Cc1ccc(N2CCC[C@H](N(Cc3ccnc(C)c3)Cc3cn4c5c(c(O)c(F)cc5c3=O)OCC4C)C2)cn1` (stereo partly drawn) [Compound 102, 9-fluoro-10-hydroxy-3-methyl-6-((((S)-1-(6-methylpyridin-3-yl)piperidin-3-yl)((2-methylpyridin-4-yl)methyl)amino)methyl)-2,3-dihydro-7H-[1,4]oxazino[2,3,4-ij]quinolin-7-one], with 0.9.
With `COc1cc(CN(Cc2cn3c4c(c(F)c(F)cc4c2=O)OCC3C)[C@H]2CCCN(c3ccc(NC(C)=O)nc3)C2)ccn1` (stereo partly drawn) [Compound 7, N-(5-((3S)-3-(((9,10-difluoro-3-methyl-7-oxo-3,7-dihydro-2H-[1,4]oxazino[2,3,4-ij]quinolin-6-yl)methyl)((2-methoxypyridin-4-yl)methyl)amino)piperidin-1-yl)pyridin-2-yl)acetamide] the figure was 65.3; with `COc1cc(CN(Cc2cn3c4c(c(OCc5ccccc5)c(F)cc4c2=O)OCC3C)[C@H]2CCCN(c3ccc(N)nc3)C2)ccn1` (stereo partly drawn) [Compound 62, 6-((((S)-1-(6-aminopyridin-3-yl)piperidin-3-yl)((2-methoxypyridin-4-yl)methyl)amino)methyl)-10-(benzyloxy)-9-fluoro-3-methyl-2H-[1,4]oxazino[2,3,4-ij]quinolin-7(3H)-one], 915.2.
On to `COc1cc(CN(Cc2cn3c4c(c(F)c(F)cc4c2=O)OCC3)[C@H]2CCCN(c3ccc(NCC4CC4)nc3)C2)ccn1` [Compound 99, (S)-6-(((1-(6-((cyclopropylmethyl)amino)pyridin-3-yl)piperidin-3-yl)((2-methoxypyridin-4-yl)methyl)amino)methyl)-9,10-difluoro-2,3-dihydro-7H-[1,4]oxazino[2,3,4-ij]quinolin-7-one], for which the “Relative mRNA INFβ/GAPDH THP 1” value was found to be 368.7.
Take `COc1cc(CN(Cc2cn3c4c(c(F)c(F)cc4c2=O)OCC3C)[C@H]2CCN(c3ccc(N)nc3)C2)ccn1` (stereo partly drawn) [Compound 15, 6-((((S)-1-(6-aminopyridin-3-yl)pyrrolidin-3-yl)((2-methoxypyridin-4-yl)methyl)amino)methyl)-9,10-difluoro-3-methyl-2H-[1,4]oxazino[2,3,4-ij]quinolin-7(3H)-one]: the “Relative mRNA INFβ/GAPDH THP 1” value stood at 5.8.
With `NC(=O)c1cc(CN(Cc2cn3c4c(c(F)c(F)cc4c2=O)OCC3)[C@H]2CCCN(c3cnccn3)C2)ccn1` [Compound 92, (S)-4-((((9,10-difluoro-7-oxo-2,3-dihydro-7H-[1,4]oxazino[2,3,4-ij]quinolin-6-yl)methyl)(1-(pyrazin-2-yl)piperidin-3-yl)amino)methyl)picolinamide] the figure was 1.1.
